According to US20170105981A1, “METHODS FOR STABILIZING HYPOXIA INDUCIBLE FACTOR-2 ALPHA AS A METHOD FOR TREATING CANCER” (The Ohio State Innovation Foundation, priority 2011, published 2017):

Legend:
[1] = test system: phosphoglycerate kinase (PGK) mRNA; assay: PGK mRNA expression (qPCR) in HIF-1α−/− fibroblasts; type: cell-based, murine; settings: hypoxic conditions (1% O2), 1, 10 and 100 μM, vs. hypoxia control, FIG. 2B
Protocol: (§1) Total RNA was isolated from tissues and cells by using TRIzol™ Reagent (Invitrogen) and the RNeasy kit (Qiagen), respectively. 1 μg RNA was used for reverse transcription using SuperScript II First-Strand Synthersis System (Invitrogen). cDNA's were amplified in a SYR Green or TaqMan Universal Master Mix (Applied Biosystems). Quantitative PCR (qPCR) was performed on ABI Prism 7700 sequence detection system. PCR conditions are: 10 min at 95° C., 40 cycles of 15 seconds at 95° C. and 1 minute at 60° C. The relative amount of mRNA was calculated after normalization to β-actin.
(§2) Cells were cultured in DMEM (#11965-092, Invitrogen) supplemented with 10% fetal bovine serum (Invitrogen), 100 U/mL penicillin and […] streptomycin. For glucose deprivation, DMEM without glucose (#11966-025, Invitrogen) was used.
(§3) Mouse embryonic fibroblasts (MEFs) were isolated from E12.5 embryos and immortalized by stable transfection with SV40 large T antigen.

[2] = test system: A375 human melanoma cells; assay: A375 human melanoma tumors in SCID mice; type: in vivo; settings: at the time of sacrifice; stabilizer 17 mg/kg, docetaxel 1 mg/kg, IP 3 times per week
Protocol: 6-8-week-old C57BL/6 mice or SCID mice were injected with 1×10^5 B16F10 murine melanoma cells or 1×10^6 A375 human melanoma cells, respectively, subcutaneously on the left flank. […] Tumor diameters were measured 3 times per week with calipers, and tumor volumes will be calculated as follows: Tumor volume=0.5×[(large diameter)×(small diameter)^2].
In the study, immunocompromised SCID mice were inoculated with A375 human melanoma tumors subcutaneously. Starting when the tumors became palpable (7 days after injection), mice were treated with either the cytotoxic chemotherapy docetaxel or with the disclosed HIF-2α stabilizer. The disclosed HIF-2α stabilizer was given at a dose of 17 mg/kg, and the docetaxel was given at 1 mg/kg. Both drugs were given IP 3 times per week. […] At the time of sacrifice, the tumors in the mice that received only the disclosed HIF-2α stabilizer were approximately 78% of the size of the control tumors, the tumors of the mice that received only chemotherapy were approximately 50% of the size of the control tumors, and the tumors of the mice that received both drugs were approximately 16% of the size of the control tumors.

[3] = test system: endothelial cell marker CD31; assay: Tumor vascularity by CD31 immunohistochemistry in melanoma-bearing mice; type: in vivo; settings: mice treated with the control antibody; p=0.022; FIG. 14B
[4] = test system: phosphoglycerate kinase (PGK) mRNA; assay: PGK mRNA expression (qPCR) in wild type murine embryonic fibroblasts; type: cell-based; settings: hypoxic conditions (1% O2), 1, 10 and 100 μM, vs. hypoxia control, FIG. 2A
Protocol: as §1, §2, §3

Pmel17 mRNA = assay: Evaluation of lung metastases by Pmel17 mRNA in lungs of B16F10 tumor-bearing mice; type: in vivo; settings: stabilizer I.P., GM-CSF I.T., vs vehicle control; FIG. 5
Protocol: Lung metastases were evaluated by detection of mRNA for melanocyte-specific proteins within the lungs of tumor-bearing mice. B16F10 tumor-bearing mice were treated with GM-CSF and/or the disclosed HIF-2α stabilizer, as depicted in FIG. 3. At the time of sacrifice, lungs were excised and flash-frozen in liquid nitrogen. Frozen lungs were homogenized in liquid nitrogen and the pulverized material was dissolved in TRIzol™ reagent (Invitrogen). […] The melanocyte-specific Pmel17 was detected by nested PCR using a modification of the protocol described by Tsukamoto et al. For the initial reaction, 30 cycles of PCR were carried out (95° C. for 1 minute, 58° C. for 1 min, 72° C. for 1 min) in a 20 μL reaction volume containing 2 μL of cDNA. […] Data were analyzed according to the comparative threshold method and normalized against the GAPDH internal control transcript. Results are semi-quantitative and represent the fold difference in transcript levels in vehicle-treated control mice as compared with levels in mice treated with the disclosed HIF-2α stabilizer and/or GM-CSF.
Lung metastases were evaluated by detection of mRNA for melanocyte-specific proteins within the lungs of tumor-bearing mice. […] Data were analyzed according to the comparative threshold method and normalized against the β-actin internal control transcript. […]

HIF-2α = assay: Immunoblot for HIF-2α in murine bone marrow-derived macrophages; type: cell-based; settings: murine bone marrow-derived macrophages treated 18 hours; p=0.001; FIG. 11A
Protocol: To generate bone marrow-derived macrophages (BDMs), femoral bone marrow was isolated and progenitor cells were plated in RPMI-1640 supplemented with 10% FBS, 1% PSA, 10 μg/mL of polymyxin B, and 20 ng/mL of recombinant murine M-CSF. Cells were cultured for 5 days with the addition of fresh M-CSF every other day. Differentiated BDM were serum-starved for 2 hours and then treated with 100 ng/mL of murine GM-CSF and/or 25 μM the disclosed HIF-2α stabilizer in RPMI-1640 containing 1% FBS and 10 μg/mL polymixin B. Culture supernatants were collected after 72 hours and assayed for VEGF and sVEGFR-1 content by ELISA (R&D Systems).
In order to confirm the selective upregulation of HIF-2α by the disclosed HIF-2α stabilizer, murine bone marrow-derived macrophages were treated with the disclosed HIF-2α stabilizer for 18 hours, and cells were then lysed and immunoblotted for HIF-1α and HIF-2α.

In the case of `O=C(O)CNC(=O)c1ncc(-c2cccc(F)c2)cc1O` [disclosed HIF-2α stabilizer, {[5-(3-Fluorophenyl)-3-hydroxypyridine-2-carbonyl]amino} acetic acid], the “PGK mRNA (relative amount)” value [1] was “dramatic reduction”, the “tumor size as % of the size of the control tumors” value [2] was “approximately 78%” and the “tumor vascularity (CD31)” value [3] was “decreased tumor vascularity”. The “PGK mRNA (relative amount)” value [4] was “dramatic reduction”, the “relative metastasis to the lung (Pmel17 mRNA expression)” value (Pmel17 mRNA) was “reduced metastasis” and the HIF-2α protein (HIF-2α) was “increase”.
